Test results: PMC12423301, “Astrocytic monoamine oxidase B (MAOB)–gamma-aminobutyric acid (GABA) axis as a molecular brake on repair following spinal cord injury” (Signal Transduction and Targeted Therapy, 2025)
“Also recorded” adds a separate entry of the source.

Experiments:
[1] = Phase 1 clinical trial: pharmacokinetics
Procedure: All subjects provided consent for this phase 1 clinical trial study. The study comprised 11 cohorts: single ascending dose (SAD) and multiple ascending dose (MAD) studies. […] Cohort 3 employed a two-period crossover design with a 14-day washout.
The parameters related to plasma concentrations were calculated via non-compartmental analysis using the linear-up log-down method in Phoenix WinNonlin software version 8.3 (Certara, US). The parameters related to urine concentrations were calculated using the linear trapezoidal linear interpolation method.
In the SAD study, plasma samples were collected using sodium K2-EDTA tubes at pre-dose, 0.33, 0.75, 1, 2, 3, 4, 6, 8, 12, 24, 48, 72, 96, 120, and 144 h after dosing. Urine samples were collected up to 72 h post-dose. In the MAD study, plasma samples were collected at pre-dose, 0.33, 0.75, 1, 2, 3, 4, 6, 8, 12 and 24 h after the administration of the first dose, and at pre-dose of the third to seventh doses. After the administration of the seventh dose, plasma samples were collected at the same time points as after the first dose, with additional sampling points at 48, 72, 96, 120, and 144 h post-dose. Urine samples were collected for 24 h after the administration of the first dose and for 72 h after the seventh dose.
For the clinical trial, dose proportionality of the PK parameters (Cmax, Cmax,ss, AUClast, and AUCτ) was assessed using power model using the following equation: log (PK parameter) = β0 + β1 log (dose). The regression slope (β1) and the intercept (β0) were estimated with 95% confidence interval (CI) using PROC REG in SAS version 9.4. The PK parameters were considered dose-proportional if the 95% CI of the β1 included 1. […] Using a linear mixed effect model, the logarithmized PK parameters were analyzed with the high-gat meal as a fixed effect and inter-individual differences as a random effect. The GMR and its 90% CI of the PK parameters of the high-fat meal were calculated relative to those in the fasting state. […] In elderly subjects, the same analyses were performed and compared to those of healthy younger adults.

rat SCI model [2] = experiment: BBB locomotor test in rat SCI model; type: in vivo, Sprague-Dawley (SD) rats; settings: for average BBB score: at PI 10w
Procedure: For the establishment of the mouse and rat SCI models, we followed methods consistent with those of previous studies.[65]–[67] In mice, a laminectomy was performed at thoracic level 10 (T10), and self-closing forceps (11485-11, Fine Science Tools; 0.10 × 0.06 mm tip, 11 cm) were applied to the exposed spinal cord for 3 s to induce injury. In rats, a laminectomy was performed at thoracic level 9 (T9), followed by the application of the same self-closing forceps (11485-11, Fine Science Tools) for 10 s. Each “Sham” group or “SCI” group indicates animals operated by only laminectomy or SCI, respectively.
(S)-2-(((4’-Trifluoromethylbiphenyl-4-yl)methyl)amino)propanamide methane-sulfonate (KDS2010) was dissolved in distilled water. For SD rats, KDS2010 was administered via the drinking water ad libitum. […] To evaluate dose-dependent effects, additional groups received 20 mg/kg/day or 30 mg/kg/day starting at PI 2 weeks. To achieve consistent exposure across animals, we meticulously monitored the daily water intake and body weight of each rat throughout the study. As shown in the Extended Data (Supplementary Table 1), water consumption was calculated weekly via a formula based on body weight (e.g., d.w = weight × 0.09 at week 0; gradually tapering to weight × 0.075 by weeks 8–9). Importantly, all animals were confirmed to have consumed the entirety of the provided medicated water each day, ensuring full ingestion of the intended dose (10 mg/kg/day for the majority of groups, and 20/30 mg/kg/day for the dose-dependent experiments).
Behavioral test was performed every week for a total of 11 weeks (1 week before and 10 weeks after the surgical operation) to assess locomotor recovery. The BBB motor score[22] or BMS score[17] was used to evaluate the quality of hindlimb movement during open field locomotion in rats or mice, respectively. In the first recovery phase, the range of joint movement and the presence of the foot closure on the floor were checked. In the second phase, the recovery of weighted stepping was checked. In the third phase, gait coordination and tail movement were assessed. These scores are “ordinal and the magnitude of behavioral change between ranks may not be consistent,” as originally described.[17] To perform the group allocation in a blinded manner during data collection, animal preparation and behavior tests were performed by at least two different investigators.
In the BBB locomotor test with drug administration beginning at PI 2w, the animals were initially subjected to injury, and then divided into two groups at PI 2w based on the basis of similar averaged BBB scores. Subsequently, these groups were treated with either the vehicle (SCI + V) or the drug (SCI+drug) from PI 2w. To exclude incompletely generated severe rat SCI animals, we established the following criteria: a score difference of more than 4 between PI 1w and 2w, and a score exceeding 8 at PI 2w.

rat SCI model [3] = experiment: EC / LFB staining of rat spinal cord tissue; type: in vivo, Sprague-Dawley (SD) rats
Procedure: EC staining was performed as previously described.[71] The tissue sections were placed on a microscope slide, allowed to dry for 2 h, and then immersed in acetone for 5 min. The slides were incubated for 10 min at 22 ± 2 °C and then treated with EC solution (MERCK, Kenilworth, NJ, USA) for 30 min at 22 ± 2 °C. After the sections were rinsed with running water, they were placed on 5% iron alum (Sigma-Aldrich, F3629) until the gray matter was observed. The sections were differentiated using borax-ferricyanide solution (Borax, Sigma-Aldrich, 71997; Potassium ferricyanide, Sigma-Aldrich, 702587) and dehydrated using graded ethanol solutions of 70%, 90%, and 100% which were changed twice. The sections were mounted with permanent mounting medium (Fisher Scientific, Hampton, NH, USA) and finally observed under a light microscope (DM 2500, Leica, Wetzlar, Germany). LFB staining was performed as previously described.[70] The myelin sheath of axons in the tissue sections were stained with 1% luxol fast blue (Sigma-Aldrich, L0294) at 60 °C overnight. The sections were rinsed with lithium carbonate (Sigma-Aldrich, 255823) solution and differentiated by 70% alcohol and then observed under a light microscope (IX71, Olympus, Tokyo, Japan).

With `CS(=O)(=O)O.C[C@H](NCc1ccc(-c2ccc(C(F)(F)F)cc2)cc1)C(N)=O` [KDS2010, (S)-2-(((4’-Trifluoromethylbiphenyl-4-yl)methyl)amino)propanamide methane-sulfonate] the “increase of systemic exposure (AUCinf and AUCτ,ss) with dose” value ([1]; 60 mg to 480 mg) was “dose-proportional”, the “higher exposure in elderly subjects” value ([1]; 120 mg for 7 days, elderly vs young) was “approximately 25%” and the “pharmacokinetic profiles, Korean vs Caucasian subjects” value ([1]; 60, 120, 240, 480 mg at steady state) was “similar”. For the same molecule, the “unchanged drug excreted in the urine” value ([1]; healthy humans) was “Less than 1%”, the AUC(0-inf) ([1]; human, in vivo, 120 mg) was 13900 ng·h/mL and the “effect of a high-fat meal on systemic exposure (Cmax and AUCinf)” value ([1]; human, in vivo, 120 mg) was “did not affect”. The half-life ([1]; human, in vivo, po) was 44.2 h, the “time to maximum plasma concentration (Cmax)” value ([1]; human, in vivo, po) was 3 h and the BBB locomotor scores (rat SCI model [2]; 10, 20, and 30 mpk from subacute phase, at 10w PI) was “dose-dependent improvement”. The “average BBB score” value (rat SCI model [2]; SCI + KDS 2w: 10 mg/kg/day in drinking water from PI 2w (subacute)) was 10.62, the “recovery in BBB locomotor test and ladder rung test” value (rat SCI model [2]; SCI + KDS 6w: 10 mpk from chronic phase (PI 6w)) was “significant motor recovery” and the “average BBB score” value (rat SCI model [2]; SCI + KDS 1 d/Re: 10 mpk from acute phase (PI 1 d), recovery subgroup) was 15.36. The “behavioral recovery in BBB locomotor test” value (rat SCI model [2]; SCI+KDS1d/No: 10 mpk from acute phase, no-recovery subgroup) was “did not show any behavioral recovery”, the “pharmacologically active dose (PAD)” value (rat SCI model [2]; SD rats, for 8 weeks) was 10 mpk and the “tissue recovery (total cord area, myelinated area)” value (rat SCI model [3]; 10, 20, and 30 mpk, PI 10w) was “significant tissue recovery”. For the same molecule, the “total spinal cord, myelinated, gray matter areas and cavity size (EC staining)” value (rat SCI model [3]; SCI + KDS 2w vs SCI + V, PI 10w) was “significantly recovered”, the “total spinal cord and myelinated areas” value (rat SCI model [3]; SCI + KDS 1 d/Re, PI 10w) was “significantly recovered” and the “total spinal cord and myelinated areas” value (rat SCI model [3]; SCI+KDS 6w vs SCI+V, PI 14w) was “tendency toward larger; also recorded: increasing trend”.
